Key:
[1] = test system: umbilical cord blood-derived CD34+ cells; assay: In vitro colony-forming unit (CFU) assay; type: cell-based, human; conditions: FIG. 6, clones counted 14 days after seeding
Protocol: In this example, the colony-forming unit (CFU) was used to detect the in vitro function of cord blood-derived hematopoietic stem cells induced by a small molecule inhibitor for qualitative and quantitative detection to verify their in vitro differentiation potential.
First, 100 mL of medium MethoCult™ H4034 Optimum (Stem Cell, Cat. No.: 04034) were aliquoted, then thawing at 2-8° C. overnight; shaking vigorously for 1-2 minutes and letting it stand for 10 minutes until the bubbles rised to the liquid level. After tightly fitting the 50 mL syringe needle to the 5 mL disposable syringe, the medium is aspirated to 1 mL, pushing out the syringe completely to exhaust the gas in the syringe, and re-absorbing 3 mL into each 15 mL centrifuge tube (Corning, Cat. No. 430791); storing at 2-8° C. for 1 month, and at −20° C. for long-term storage.
3 mL of medium Meth® Cult′ H4034 Optimum was prepared and thawed overnight at room temperature (15-25° C.) or 2-8° C. […]
Colonies were observed on the 7th and 14th days of culture, and colonies were counted with a STEMgrid™-6 counting grid (stem cell, Cat. number: 27000) after 14 days of culture. […]

[2] = test system: mobilized peripheral blood-derived CD34+ cells; assay: Cell counting: absolute number of marker-positive cells, comparison with UM171 and SR1; type: cell-based, human; conditions: FIG. 5B, 8 days
Protocol: According to the solubility and required solvent indicated in the instructions of the small molecule inhibitor (see Table 1 for the Cat. number of the small molecule inhibitor), the preparation of the small molecule inhibitor stock solution was carried out. Next, the hematopoietic stem cell medium was prepared: SFEM II medium (stem cell, Cat. number: 09655)+50 ng/ml growth factor Flt-3L (PeProtech, Cat. number: 300-100UG)+50 ng/ml growth factor SCF (PeProtech, Cat. number): 300-07-100UG)+50 ng/ml growth factor TPO (PeProtech, Cat. number: 300-18-100UG)+10 ng/ml interleukin IL-6 (PeProtech, Cat. number: 200-06-20UG)+1% bispecific antibody (HyClone, Cat. No.: sv30010). According to the set concentration gradient of the small molecule inhibitor, the stock solution and the basal medium were used to prepare the medium containing different concentrations of the small molecule inhibitor.
First, the prepared medium was added to a 24-well plate (Corning, Cat. number: 3473), 950 μl per well, and placing it in a carbon dioxide incubator (Thermo, model: 3111) to preheat; resuspending the spare umbilical cord Blood-derived HSCs of Example 1 with SFEM 11+50 ng/ml Flt-3L+50 ng/ml SCF+50 ng/ml TPO+10 ng/ml IL-6+1% bispecific antibody, calculating the medium volume to be added according to 50 μl cell suspension per well and 2*10^5/m1 cell density per well. For example, when the final volume of the cell culture solution per well was 1 ml, the total number of cells per well was 2*10^5 cells calculated according to the cell density per well, and the density of the […] of cell suspension supplemented to each well is 4*10^6/ml. The density of the spare HSCs of Example 1 was adjusted to the calculated density of the cell suspension, and adding it; taking out the preheated medium from the incubator, adding 50 μl of the cell suspension to each well, and after mixing, using the microscope (OLYMPUS, model: CKX53) to observe the cells state, and then putting it into an incubator for culturing.
On the mobilized peripheral blood-derived CD34+ cells sorted in Example 1, the screened-out inhibitor AG1296 and literature-reported (Fares I, et al. Science. 2014; Boitano A E, et al. Science. 2010) inhibitors UM171 and SR1 were compared in the same way as Example 2. Eight days after the induction of the small molecule inhibitor, the expression of LT-HSCs cell surface markers (CD34+CD45+CD90+CD45RA−CD38−) was detected by flow cytometry using the same method as in Example 3. After 8 days of culture, 20 μL of cell suspension was taken into a cell counter (Nexcelom, model: Cellometer K2) and counted, and the absolute numbers of the final CD34+ cells and LT-HSCs on […] were calculated (absolute number of cells=total number of cells*stemness ratio).

Compound: COc1cc2ncc(-c3ccccc3)nc2cc1OC [AG1296]
- number of GEMM clones (CFU-GEMM) ([1]; 1 μM, 8 days treatment): significantly better than the other groups
- total number of clones ([1]; different concentrations of AG1296, 8 days treatment): little difference between the groups
- absolute number of CD34+CD90+, and CD34+CD90+CD45RA- cells ([2]; 1 μM): showed superiority
- effect on cell proliferation ([2]; 1 μM): could inhibit cell proliferation
- absolute number of CD34+ cells ([2]; AG1296 at 1 μM, UM171 concentration not given): not significantly better than other groups
